Experimental data as given in patent publication US20110060036A1, “Branched Multifunctional Nanoparticle Conjugates And Their Use” (EMORY UNIVERSITY, priority 2008, published 2011).

Key:
MDA-MB-231 tumor = assay: Therapeutic efficacy test in MDA-MB-231 orthotopic tumor model; type: in vivo, athymic nude mice; settings: for therapeutic outcome in small tumors: tumors about 30 mm^3, i.v. weekly; for therapeutic outcome in small tumors / antitumor effect in large tumors: TX equivalent 30 mg/Kg; for antitumor effect in large tumors: tumors about 120 mm^3, i.v., 4 weekly injections
Experimental: The MDA-MB-231 tumor model was used for testing the in-vivo therapeutic efficacy of these polymer-drug conjugates. MDA-MB-231 tumors were developed in the mammary fat pad of athymic nude mice as discussed above. When the average sizes of the tumor reached 100-120 or ˜30 mm^3, mice were randomly sorted into 4 groups (6 mice each group). A paclitaxel equivalent of 30 mg/kg of free drug and polymer drug conjugates were administered i.v. and the injections were performed weekly. Tumor sizes were measured in two dimensions with calipers and volume was calculated using the following formula: Tumor volume=(length×width^2)/2. The end-point size of this tumor model was set at 1,500 mm^3, 20% weight loss or severe ulceration (more than 20% of tumor areas).
Following the in-vivo blood circulation and tumor targeting tests, the anti-tumor activity of these nanoparticles was evaluated in comparison with free TX using the MDA-MB-231 orthotopic tumor model with two serials trials of tumor sizes of about 120 and 30 mm^3.

[1] = room temperature (25 degrees C.); cited from earlier work
tumor cell cultures = settings: cited from earlier work

CC(=O)O[C@H]1C(=O)[C@@]2(C)[C@H]([C@H](OC(=O)c3ccccc3)[C@]3(O)C[C@H](OC(=O)[C@H](O)[C@@H](NC(=O)c4ccccc4)c4ccccc4)C(C)=C1C3(C)C)[C@]1(OC(C)=O)CO[C@@H]1C[C@@H]2O [TX, paclitaxel]
histological analysis of tumor sections: Ki67 expression level (MDA-MB-231 tumor; large tumors, TX equivalent 30 mg/Kg weekly): little difference compared to the control
therapeutic outcome in small tumors (MDA-MB-231 tumor): delayed response to the treatment
antitumor effect in large tumors (MDA-MB-231 tumor): little effect on tumor inhibition

CC(C)CCC[C@@H](C)[C@H]1CC[C@H]2[C@@H]3CC=C4C[C@@H](O)CC[C@]4(C)[C@H]3CC[C@]12C [cholesterol]
solubility in water [1]: 10 nanograms/ml

COc1cccc2c1C(=O)c1c(O)c3c(c(O)c1C2=O)C[C@@](O)(C(=O)CO)C[C@@H]3O[C@H]1C[C@H](N)[C@H](O)[C@H](C)O1 [doxorubicin]
solubility in water [1]: 1 milligram/ml

PG-2′-O— succinyl-paclitaxel [GT]
therapeutic outcome in small tumors (MDA-MB-231 tumor): delayed response to the treatment
antitumor effect in large tumors (MDA-MB-231 tumor): significant antitumor effects

calicheamicin
IC50 for inhibition of growth of tumor cell cultures (tumor cell cultures): low picomolar range

dynemicin
IC50 for inhibition of growth of tumor cell cultures (tumor cell cultures): low picomolar range

esperamicin
IC50 for inhibition of growth of tumor cell cultures (tumor cell cultures): low picomolar range
